SMILES strings stand for the structures. The source made the active and inactive calls.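 How the source made its calls: active means IC50 at or below about 50119 nM, measured in restricted growth medium; inactive means the rest.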

The assay has as its system HepG2 viability, ATP luminescence, 48 h. Put plainly: viability loss in human liver HepG2 cells – cytotoxicity control, dose response (AID 2060596).
Broadly, the IC50 is the point on the concentration scale where inhibition reaches its midpoint. Take `O=C(COc1ccc(Br)cc1F)N1CCN(c2cnccn2)CC1`: the IC50 was > 100 µM (inactive).

Turning to `O=C(/C=C/c1n[nH]c2ccccc12)N1CCN(c2cnccn2)CC1`, the IC50 is > 100 µM (inactive).

On to `COc1ccc(NC(=O)c2ccc3c(=O)n(Cc4ccccn4)cnc3c2)cc1N1CCN(C)CC1`, for which the IC50 was > 100 µM (inactive).

For `Cc1cc(-c2cnc(N3CCn4c(nnc4C4CC4)C3)nc2-c2ccncc2)on1`, the IC50 was > 100 µM (inactive).

As for `O=C(CCCc1c[nH]c2ccccc12)N1CCN(c2ccc(N3CCOCC3)nn2)CC1`, the IC50 was > 100 µM (inactive).

Consider `COc1ccc(C(=O)N2CCN(c3ccc(-n4cccn4)nn3)CC2)cc1OC`, for which the IC50 was > 100 µM (inactive).

In the case of `COc1ccc(N2CCN(C(=O)c3csc(Nc4ccccc4S(C)(=O)=O)n3)CC2)nc1`, the IC50 was > 100 µM (inactive).

Regarding `CCN(CC)c1ccc(C(=O)COc2ccc3c(c2)CCNCC3)cc1`, the IC50 is 31.6 µM.

Regarding `N#Cc1c(N)n[nH]c1CCCNC(=O)c1ccc(Cl)c(S(=O)(=O)N2CCCC2)c1`, the IC50 is > 100 µM (inactive).

As to `Cc1ccc2nc(CCNC(=O)CCS(=O)(=O)c3ccc4c(c3)CC(=O)N4C)[nH]c2c1`, the IC50 is > 100 µM (inactive).

In the case of `Cc1cc(Cl)ccc1OCC(=O)N1CCc2c(cnc(C)c2CNC(=O)c2ccc(=O)[nH]n2)C1`, the IC50 was > 100 µM (inactive).

As for `O=C(CCCc1ncc(-c2ccccc2)o1)N1CCOC2CCCC21` (stereo not drawn), the IC50 is > 100 µM (inactive).

For `CC(C)Oc1ccc(-c2nnc(Oc3cccc4c3CCN(CCC(N)=O)CC4)s2)cc1C#N`, the IC50 is 20 µM.

Regarding `O=C(c1cc2ccccc2[nH]1)N1CCC2(CC(Nc3ccncn3)C2)C1` (stereo not drawn), the IC50 is 63.1 µM.

Regarding `NC(=O)CC1CCN(C(=O)c2sc3sccc3c2Cl)CC1`, the IC50 was > 100 µM (inactive).

Regarding `O=C(Nc1nnc(-c2ccccc2)s1)N1CCCN(c2ncccn2)CC1`, the IC50 was > 100 µM (inactive).

With `COc1ccc2oc(C(=O)NC3CCC(Oc4ncccn4)CC3)cc2c1` (stereo not drawn), the IC50 was > 100 µM (inactive).

For `O=C(CCN=C1NS(=O)(=O)c2ccccc21)Nc1ccc(S(=O)(=O)N2CCCC2)cc1`, the IC50 is > 100 µM (inactive).

In the case of `CCCOc1cncc(S(=O)(=O)c2ccc3c(c2)CCN(C2CCC2)CC3)c1`, the IC50 was 50.1 µM.

Turning to `O=C1CCCN1c1ccc(S(=O)(=O)N2CCN(S(=O)(=O)c3ccccc3)CC2)cc1`, the IC50 was > 100 µM (inactive).

For `CCN(C(=O)C=Cc1ccc(S(=O)(=O)N2CCc3ccccc32)cc1)C1CCS(=O)(=O)C1` (stereo not drawn), the IC50 is > 100 µM (inactive).

For `O=C1CSc2ccc(C(=O)Nc3ccc(-c4nnc5n4CCCCC5)cc3)cc2N1`, the IC50 is > 100 µM (inactive).

In the case of `O=C(Nc1cccnc1)C1CCN(c2ccc(-c3ccco3)nn2)CC1`, the IC50 was > 100 µM (inactive).

Consider `COc1ccc(-c2ccc(CNC(=O)c3cc(C(=O)NC(C)C)ccc3Cl)cc2)cn1`, for which the IC50 was > 100 µM (inactive).

On to `O=C(Nc1ccc(N2CCCC2)nc1)N1CCN(c2cnccn2)CC1`, for which the IC50 was > 100 µM (inactive).

As to `O=C(/C=C/c1n[nH]c2ccccc12)Nc1ccc(C(=O)NCCN2CCOCC2)cc1`, the IC50 was > 100 µM (inactive).

Take `Cn1cccc1C1CCCN1CC(=O)Nc1ccc(S(=O)(=O)N2CCOCC2)cc1` (stereo not drawn): the IC50 is > 100 µM (inactive).

As to `Cc1cccc(-c2nn(Cc3ccc(C(=O)NCCCO)cc3)c(=O)cc2N2CCCC(CO)C2)c1` (stereo not drawn), the IC50 is > 100 µM (inactive).

On to `N#Cc1cccc(NC(=O)CNc2ccccc2C(=O)NC2CC2)c1`, for which the IC50 is > 100 µM (inactive).

As to `O=C(NCCCN1CCc2ccccc21)c1ccc2c(=O)n(Cc3ccccn3)cnc2c1`, the IC50 is > 100 µM (inactive).

Take `Cc1nn(C2CCS(=O)(=O)C2)c(C)c1CN(C)C(=O)CN1C(=O)NC2(CCCCC2C)C1=O` (stereo not drawn): the concentration for half-maximal inhibition (IC50) is 79.4 µM.

In the case of `CN(C(=O)C[C@@H]1CCN(C(=O)C2CC2)C1)c1ccc(-c2ccc(C#N)cc2)cc1`, the IC50 is > 100 µM (inactive).

As for `O=C(CCn1nnc2cc(S(=O)(=O)N3CCCC3)ccc21)N1CCN(c2ccccn2)CC1`, the IC50 is > 100 µM (inactive).

Source of the values: PubChem BioAssay AID2060596 (Global Health Medicines R&D, GSK, 2025).
